# Data published in US8426345B2, “Method of drug design” (Alchemia Limited, priority 2005, dated 2013).
# Target: T1, Human SST5 somatostatin receptor (Homo sapiens, UniProt P35346)
# T1 construct: expressed in transfected cells; host or cells: HEK-293 EBNA cells (membranes)
# Experiment: Filter plate radio-ligand binding assay for SST5 receptor ([125I]SST-14 displacement)
# Settings: for % SST5 radio-ligand binding displaced at conc 50: compound conc 50 μM; for % SST5 radio-ligand binding displaced at conc 50 / % SST5 radio-ligand binding displaced at conc 250 / % SST5 radio-ligand binding displaced at conc 500: 2P library; for % SST5 radio-ligand binding displaced at conc 250: compound conc 250 μM; for % SST5 radio-ligand binding displaced at conc 500: compound conc 500 μM; for % SST5 radio-ligand binding displaced at conc 0.25: conc 0.25 μM; for % SST5 radio-ligand binding displaced at conc 0.25 / % SST5 radio-ligand binding displaced at conc 1.0: 3P library; for % SST5 radio-ligand binding displaced at conc 1.0: conc 1.0 μM
# T1 sequence (P35346 whole entry): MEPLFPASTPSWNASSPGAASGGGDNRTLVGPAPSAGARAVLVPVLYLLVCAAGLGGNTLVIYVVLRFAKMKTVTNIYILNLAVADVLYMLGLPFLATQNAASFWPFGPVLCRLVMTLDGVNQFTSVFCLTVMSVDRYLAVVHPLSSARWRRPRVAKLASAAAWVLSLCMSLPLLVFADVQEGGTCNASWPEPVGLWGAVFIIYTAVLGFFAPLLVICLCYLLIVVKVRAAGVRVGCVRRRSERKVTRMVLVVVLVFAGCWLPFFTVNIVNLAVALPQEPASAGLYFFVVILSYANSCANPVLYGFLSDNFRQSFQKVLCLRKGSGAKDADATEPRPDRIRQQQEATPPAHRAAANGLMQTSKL
structure (smiles),measurement,value
CO[C@@H]1[C@H](O)[C@@H](COCc2ccc3ccccc3c2)O[C@@H](SC)[C@@H]1NC(=O)CCCN [Compound 42],% SST5 radio-ligand binding displaced at conc 50,− (% SST5 radio-ligand binding displaced at cone (μM) −<40%)
same,% SST5 radio-ligand binding displaced at conc 250,− (% SST5 radio-ligand binding displaced at cone (μM) −<40%)
same,% SST5 radio-ligand binding displaced at conc 500,+ (% SST5 radio-ligand binding displaced at cone (μM) 60>+>40%)
COC[C@H]1O[C@@H](OCc2ccc(Cl)cc2)[C@H](NC(=O)CN)[C@@H](OC)[C@@H]1O [Compound 13],% SST5 radio-ligand binding displaced at conc 50,− (% SST5 radio-ligand binding displaced at cone (μM) −<40%)
same,% SST5 radio-ligand binding displaced at conc 250,− (% SST5 radio-ligand binding displaced at cone (μM) −<40%)
same,% SST5 radio-ligand binding displaced at conc 500,− (% SST5 radio-ligand binding displaced at cone (μM) −<40%)
NCCC(=O)NC1C(OCc2ccc3ccccc3c2)OC(COCc2ccc(Cl)cc2)C(O)C1OCc1ccccc1 (mixture of isomers) [Compound 78],% SST5 radio-ligand binding displaced at conc 0.25,+ (% SST5 radio-ligand binding displaced at cone (μM) 60>+>40%)
same,% SST5 radio-ligand binding displaced at conc 1.0,++ (% SST5 radio-ligand binding displaced at conc (μM) >60%)
COC[C@H]1O[C@H](OCc2ccc3ccccc3c2)[C@H](NC(=O)CCN)[C@@H](OCc2ccc3ccccc3c2)[C@@H]1O [Compound 98],% SST5 radio-ligand binding displaced at conc 0.25,+ (% SST5 radio-ligand binding displaced at cone (μM) 60>+>40%)
same,% SST5 radio-ligand binding displaced at conc 1.0,++ (% SST5 radio-ligand binding displaced at conc (μM) >60%)
COC[C@H]1O[C@H](OCc2ccc3ccccc3c2)[C@H](NC(=O)CCCN)[C@@H](OCc2cc(Cl)ccc2Cl)[C@@H]1O [Compound 145],% SST5 radio-ligand binding displaced at conc 0.25,+ (% SST5 radio-ligand binding displaced at cone (μM) 60>+>40%)
same,% SST5 radio-ligand binding displaced at conc 1.0,++ (% SST5 radio-ligand binding displaced at conc (μM) >60%)
COC[C@H]1O[C@H](OCc2ccc3ccccc3c2)[C@H](NC(=O)CCN)[C@@H](OCc2nc3ccccc3s2)[C@@H]1O [Compound 111],% SST5 radio-ligand binding displaced at conc 0.25,− (% SST5 radio-ligand binding displaced at cone (μM) −<40%)
same,% SST5 radio-ligand binding displaced at conc 1.0,− (% SST5 radio-ligand binding displaced at cone (μM) −<40%)
COC[C@H]1O[C@H](OCc2ccc3ccccc3c2)[C@H](NC(=O)CCN)[C@@H](OCc2cccc(Cl)c2)[C@@H]1O [Compound 107],% SST5 radio-ligand binding displaced at conc 0.25,++ (% SST5 radio-ligand binding displaced at conc (μM) >60%)
same,% SST5 radio-ligand binding displaced at conc 1.0,++ (% SST5 radio-ligand binding displaced at conc (μM) >60%)
COC1C(O)C(COCc2ccccc2)OC(OCc2ccc3ccccc3c2)C1NC(=O)CCN (mixture of isomers) [Compound 93],% SST5 radio-ligand binding displaced at conc 0.25,− (% SST5 radio-ligand binding displaced at cone (μM) −<40%)
same,% SST5 radio-ligand binding displaced at conc 1.0,+ (% SST5 radio-ligand binding displaced at cone (μM) 60>+>40%)
"COC[C@H]1OC(OCc2ccc(Cl)cc2)[C@H](NC(=O)CN)[C@@H](OCc2ccccc2)[C@@H]1O (single isomer, unassigned) [Compound 168]",% SST5 radio-ligand binding displaced at conc 0.25,− (% SST5 radio-ligand binding displaced at cone (μM) −<40%)
same,% SST5 radio-ligand binding displaced at conc 1.0,− (% SST5 radio-ligand binding displaced at cone (μM) −<40%)
COCC1OC(SC)C(NC(=O)CN)C(OCc2ccc(Cl)cc2)C1O (stereo not shown) [Compound 31],% SST5 radio-ligand binding displaced at conc 50,− (% SST5 radio-ligand binding displaced at cone (μM) −<40%)
same,% SST5 radio-ligand binding displaced at conc 250,− (% SST5 radio-ligand binding displaced at cone (μM) −<40%)
same,% SST5 radio-ligand binding displaced at conc 500,+ (% SST5 radio-ligand binding displaced at cone (μM) 60>+>40%)
COC[C@H]1O[C@H](OCc2ccc3ccccc3c2)[C@H](NC(=O)CCCN)[C@@H](OCc2nc3ccccc3s2)[C@@H]1O [Compound 148],% SST5 radio-ligand binding displaced at conc 0.25,− (% SST5 radio-ligand binding displaced at cone (μM) −<40%)
same,% SST5 radio-ligand binding displaced at conc 1.0,− (% SST5 radio-ligand binding displaced at cone (μM) −<40%)
